# Experimental data: US12528826B2, “[1,4]oxazepino[2,3-c]quinolinone derivatives as BCL6 inhibitors” (Cancer Research Technology Limited, priority 2019, dated 2026)
# Target: T1, Trx-6×His-BCL6 (human BCL6 BTB domain covering amino-acid sequence 5-129) (Homo sapiens, UniProt P41182)
# T1 construct: made in house
# Assay: HTRF assay (BCL6 / BCOR peptide)
# Assay type: binding
# Conditions: 1 nM Trx-6×His-BCL6, 300 nM BCOR-AF633 peptide, 2 hours incubation at room temperature; read-out: HTRF avg pIC50 (converted)
# Method: After 2 hours incubation at room temperature the plate was read on a Pherastar FSX (BMG Labtech) plate reader equipped with 337 nm laser excitation filter, a first emission filter at 620 nm and a second emission filter at 665 nm. The % inhibition at each concentration was calculated by normalising FRET ratio to the appropriate high (DMSO with all reagents) and low (DMSO without BCL6) controls.
row,Compound,IC50 [nM]
1,"CN(C)[C@@H]1CCCN(c2ncc(Cl)c(Nc3ccc4c(c3)c3c(c(=O)n4C)OCC(F)(F)[C@H](C4CC4)N3)n2)C1 [Example 9i, (S)-10-((5-chloro-2-((R)-3-(dimethylamino)piperidin-1-yl)pyrimidin-4-yl)amino)-2-cyclopropyl-3,3-difluoro-7-methyl-1,2,3,4-tetrahydro-[1,4]oxazepino[2,3-c]quinolin-6(7H)-one]",2.69
2,"CC(=O)N(C)[C@@H]1CN(c2ncc(Cl)c(Nc3ccc4c(c3)c3c(c(=O)n4C)OCC(F)(F)[C@H](C4CC4)N3)n2)CCC1(F)F [Example 9m, N-((R)-1-(5-chloro-4-(((S)-2-cyclopropyl-3,3-difluoro-7-methyl-6-oxo-1,2,3,4,6,7-hexahydro-[1,4]oxazepino[2,3-c]quinolin-10-yl)amino)pyrimidin-2-yl)-4,4-difluoropiperidin-3-yl)-N-methylacetamide]",2.51
3,"CC(=O)N(C)[C@H]1CN(c2ncc(Cl)c(Nc3ccc4c(c3)c3c(c(=O)n4C)OCC(F)(F)[C@H](C4CC4)N3)n2)CCC1(F)F [Example 9n, N-((S)-1-(5-chloro-4-(((S)-2-cyclopropyl-3,3-difluoro-7-methyl-6-oxo-1,2,3,4,6,7-hexahydro-[1,4]oxazepino[2,3-c]quinolin-10-yl)amino)pyrimidin-2-yl)-4,4-difluoropiperidin-3-yl)-N-methylacetamide]",4.9
4,"Cn1c(=O)c2c(c3cc(Nc4nc(N5CCC(F)(CO)CC5)ncc4Cl)ccc31)N[C@@H](C1CC1)C(F)(F)CO2 [Example 9o, (S)-10-((5-chloro-2-(4-fluoro-4-(hydroxymethyl)piperidin-1-yl)pyrimidin-4-yl)amino)-2-cyclopropyl-3,3-difluoro-7-methyl-1,2,3,4-tetrahydro-[1,4]oxazepino[2,3-c]quinolin-6(7H)-one]",9.33
5,"Cn1c(=O)c2c(c3cc(Nc4nc(N5CCC[C@@H](CO)C5)ncc4Cl)ccc31)N[C@@H](C1CC1)C(F)(F)CO2 [Example 9p, (S)-10-((5-chloro-2-((R)-3-(hydroxymethyl)piperidin-1-yl)pyrimidin-4-yl)amino)-2-cyclopropyl-3,3-difluoro-7-methyl-1,2,3,4-tetrahydro-[1,4]oxazepino[2,3-c]quinolin-6(7H)-one]",2.88
6,"Cn1c(=O)c2c(c3cc(Nc4nc(N5CCC[C@H](CO)C5)ncc4Cl)ccc31)N[C@@H](C1CC1)C(F)(F)CO2 [Example 9q, (S)-10-((5-chloro-2-((S)-3-(hydroxymethyl)piperidin-1-yl)pyrimidin-4-yl)amino)-2-cyclopropyl-3,3-difluoro-7-methyl-1,2,3,4-tetrahydro-[1,4]oxazepino[2,3-c]quinolin-6(7H)-one]",4.27
7,"Cn1c(=O)c2c(c3cc(Nc4nc(N5C[C@H](F)C[C@H](F)C5)ncc4Cl)ccc31)N[C@@H](C1CC1)C(F)(F)CO2 [Example 9s, (S)-10-((5-chloro-2-((3S,5R)-3,5-difluoropiperidin-1-yl)pyrimidin-4-yl)amino)-2-cyclopropyl-3,3-difluoro-7-methyl-1,2,3,4-tetrahydro-[1,4]oxazepino[2,3-c]quinolin-6(7H)-one]",19.5
8,"CN(CC(C)(C)O)c1ncc(Cl)c(Nc2ccc3c(c2)c2c(c(=O)n3C)OCC(F)(F)[C@H](C3CC3)N2)n1 [Example 9u, (S)-10-((5-chloro-2-((2-hydroxy-2-methylpropyl)(methyl)amino)pyrimidin-4-yl)amino)-2-cyclopropyl-3,3-difluoro-7-methyl-1,2,3,4-tetrahydro-[1,4]oxazepino[2,3-c]quinolin-6(7H)-one]",4.17
9,"CN(CCC(C)(C)O)c1ncc(Cl)c(Nc2ccc3c(c2)c2c(c(=O)n3C)OCC(F)(F)[C@H](C3CC3)N2)n1 [Example 9v, (S)-10-((5-chloro-2-((3-hydroxy-3-methylbutyl)(methyl)amino)pyrimidin-4-yl)amino)-2-cyclopropyl-3,3-difluoro-7-methyl-1,2,3,4-tetrahydro-[1,4]oxazepino[2,3-c]quinolin-6(7H)-one]",4.68
10,"Cn1c(=O)c2c(c3cc(Nc4nc(N5CC6(CN(CC7CC7)C6)C5)ncc4Cl)ccc31)N[C@@H](C1CC1)C(F)(F)CO2 [Example 9w, (S)-10-((5-chloro-2-(6-(cyclopropylmethyl)-2,6-diazaspiro[3.3]heptan-2-yl)pyrimidin-4-yl)amino)-2-cyclopropyl-3,3-difluoro-7-methyl-1,2,3,4-tetrahydro-[1,4]oxazepino[2,3-c]quinolin-6(7H)-one]",2.75
11,"Cn1c(=O)c2c(c3cc(Nc4nc(N5CC6(CN(CC7CC7(F)F)C6)C5)ncc4Cl)ccc31)N[C@@H](C1CC1)C(F)(F)CO2 (stereo partly drawn) [Example 9x, (2S)-10-((5-chloro-2-(6-((2,2-difluorocyclopropyl)methyl)-2,6-diazaspiro[3.3]heptan-2-yl)pyrimidin-4-yl)amino)-2-cyclopropyl-3,3-difluoro-7-methyl-1,2,3,4-tetrahydro-[1,4]oxazepino[2,3-c]quinolin-6(7H)-one]",3.47
12,"Cn1c(=O)c2c(c3cc(Nc4nc(N5CC6CCC(C5)N6CC5CC5)ncc4Cl)ccc31)N[C@@H](C1CC1)C(F)(F)CO2 [Example 9y, (2S)-10-((5-chloro-2-(8-(cyclopropylmethyl)-3,8-diazabicyclo[3.2.1]octan-3-yl)pyrimidin-4-yl)amino)-2-cyclopropyl-3,3-difluoro-7-methyl-1,2,3,4-tetrahydro-[1,4]oxazepino[2,3-c]quinolin-6(7H)-one]",2.75
13,"Cn1c(=O)c2c(c3cc(Nc4nc(N5CC6CCC(C5)N6CC5CC5(F)F)ncc4Cl)ccc31)N[C@@H](C1CC1)C(F)(F)CO2 (stereo partly drawn) [Example 9za, (2S)-10-((5-chloro-2-(8-((2,2-difluorocyclopropyl)methyl)-3,8-diazabicyclo[3.2.1]octan-3-yl)pyrimidin-4-yl)amino)-2-cyclopropyl-3,3-difluoro-7-methyl-1,2,3,4-tetrahydro-[1,4]oxazepino[2,3-c]quinolin-6(7H)-one]",7.59
14,"C[C@@H]1C[C@@H](O)CN(c2ncc(Cl)c(Nc3ccc4c(c3)c3c(c(=O)n4C)OCC(F)(F)[C@H](C4CC4)N3)n2)C1 [Example 9zb, (S)-10-((5-chloro-2-((3R,5R)-3-hydroxy-5-methylpiperidin-1-yl)pyrimidin-4-yl)amino)-2-cyclopropyl-3,3-difluoro-7-methyl-1,2,3,4-tetrahydro-[1,4]oxazepino[2,3-c]quinolin-6(7H)-one]",9.77
15,"CN1CCCN(c2ncc(Cl)c(Nc3ccc4c(c3)c3c(c(=O)n4C)OCC(F)(F)[C@H](C4CC4)N3)n2)CC1 [Example 11a, (2S)-10-[[5-chloro-2-(4-methyl-1,4-diazepan-1-yl)pyrimidin-4-yl]amino]-2-cyclopropyl-3,3-difluoro-7-methyl-2,4-dihydro-1H-[1,4]oxazepino[2,3-c]quinolin-6-one]",2.75
16,"Cn1c(=O)c2c(c3cc(Nc4nc(N5C[C@H](O)C[C@H](O)C5)ncc4Cl)ccc31)N[C@@H](C1CC1)C(F)(F)CO2 [Example 11e, (S)-10-((5-chloro-2-((3R,5S)-3,5-dihydroxypiperidin-1-yl)pyrimidin-4-yl)amino)-2-cyclopropyl-3,3-difluoro-7-methyl-1,2,3,4-tetrahydro-[1,4]oxazepino[2,3-c]quinolin-6(7H)-one]",0.871
17,"CCCN(C)c1ncc(Cl)c(Nc2ccc3c(c2)c2c(c(=O)n3C)OCC(F)(F)[C@H](C3CC3)N2)n1 [Example 11i, (S)-10-((5-chloro-2-(methyl(propyl)amino)pyrimidin-4-yl)amino)-2-cyclopropyl-3,3-difluoro-7-methyl-1,2,3,4-tetrahydro-[1,4]oxazepino[2,3-c]quinolin-6(7H)-one]",30.9
18,"CCCN(CCO)c1ncc(Cl)c(Nc2ccc3c(c2)c2c(c(=O)n3C)OCC(F)(F)[C@H](C3CC3)N2)n1 [Example 11k, (S)-10-((5-chloro-2-((2-hydroxyethyl)(propyl)amino)pyrimidin-4-yl)amino)-2-cyclopropyl-3,3-difluoro-7-methyl-1,2,3,4-tetrahydro-[1,4]oxazepino[2,3-c]quinolin-6(7H)-one]",9.77
19,"Cn1c(=O)c2c(c3cc(Nc4nc(N5CCCC6(CC6)C5)ncc4Cl)ccc31)N[C@@H](C1CC1)C(F)(F)CO2 [Example 11l, (S)-10-((5-chloro-2-(5-azaspiro[2.5]octan-5-yl)pyrimidin-4-yl)amino)-2-cyclopropyl-3,3-difluoro-7-methyl-1,2,3,4-tetrahydro-[1,4]oxazepino[2,3-c]quinolin-6(7H)-one]",44.7
20,"Cn1c(=O)c2c(c3cc(Nc4nc(N5CC(C)(C)C5)ncc4Cl)ccc31)N[C@@H](C1CC1)C(F)(F)CO2 [Example 11n, (S)-10-((5-chloro-2-(3,3-dimethylazetidin-1-yl)pyrimidin-4-yl)amino)-2-cyclopropyl-3,3-difluoro-7-methyl-1,2,3,4-tetrahydro-[1,4]oxazepino[2,3-c]quinolin-6(7H)-one]",14.8
21,"CC1CN(c2ncc(Cl)c(Nc3ccc4c(c3)c3c(c(=O)n4C)OCC(F)(F)[C@H](C4CC4)N3)n2)C1 [Example 11o, (S)-10-((5-chloro-2-(3-methylazetidin-1-yl)pyrimidin-4-yl)amino)-2-cyclopropyl-3,3-difluoro-7-methyl-1,2,3,4-tetrahydro-[1,4]oxazepino[2,3-c]quinolin-6(7H)-one]",7.59
22,"Cn1c(=O)c2c(c3cc(Nc4nc(N5CC(C#N)C5)ncc4Cl)ccc31)N[C@@H](C1CC1)C(F)(F)CO2 [Example 11p, (S)-1-(5-chloro-4-((2-cyclopropyl-3,3-difluoro-7-methyl-6-oxo-1,2,3,4,6,7-hexahydro-[1,4]oxazepino[2,3-c]quinolin-10-yl)amino)pyrimidin-2-yl)azetidine-3-carbonitrile]",4.07
